Experiments:
Format in all cases: cell-based
BHK-21 cells = assay: Anti-fibrosis activity test: inhibition of BHK-21 cell proliferation (CCK-8); details: Mesocricetus auratus, BHK-21, 48 h
Procedure, shortened: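 Proliferation of BHK-21 cells is measured by CCK-8 at 450 nm following 48 h compound exposure at several concentrations. Inhibition is expressed relative to blank control and IC50 is computed from it.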

NF-κB = assay: Immunological activity test: inhibition of NF-κB activity; details: initial concentration of 30 μM; a/b isomers given as first/second symbol; read-out: IC50 (μM), inhibitory activity against NF-κB
Procedure, shortened: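 Single-point testing at 30 μM preceded IC50 determination.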

[1] = test system: human embryonic lung fibroblast IMR-90; assay: Anti-fibrosis activity test: inhibition of proliferation of human embryonic lung fibroblast IMR-90 (CCK-8)
Procedure, shortened: (§1)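 48 h compound treatment of fibroblast-type cells seeded at 2×10^4 cells/mL, 37° C, 5% CO2; viability by CCK-8 (2 h, A450). Inhibition rate calculated against blank control, IC50 by curve fitting; pirfenidone served as reference.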

[2] = test system: human lung fibroblasts HFL1; assay: Anti-fibrosis activity test: inhibition of proliferation of human lung fibroblasts HFL1 (CCK-8); details: Homo sapiens, HFL1, 48 h
Procedure, shortened: as §1

[3] = test system: human dermal fibroblasts CCC-ESF-1; assay: Anti-fibrosis activity test: inhibition of proliferation of human dermal fibroblasts CCC-ESF-1 (CCK-8); details: Fibroblast
Procedure, shortened: as §1

[4] = test system: human hepatic stellate cells LX-2; assay: Anti-fibrosis activity test: inhibition of proliferation of human hepatic stellate cells LX-2 (CCK-8); details: Homo sapiens, 48 h
Procedure, shortened: as §1

[5] = test system: mouse macrophages (RAW264.7); assay: Lipopolysaccharide-induced NO secretion in macrophages (Griess); details: Mus musculus, RAW264.7, 24 h, RAW264.7, LPS 1 μg/ml, a/b isomers given as first/second symbol, read-out: IC50 (μM), inhibition of lipopolysaccharide-induced NO secretion in macrophages
Procedure, shortened: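 RAW264.7 macrophages in DMEM with 10% FBS received test samples at several concentrations and were stimulated with 1 μg/ml LPS for 24 h. NO in the supernatant was measured with the Griess reagent at 548 nm, […].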

[6] = test system: human fibrosarcoma cells HT-1080; assay: Anti-fibrosis activity test: inhibition of proliferation of human fibrosarcoma cells HT-1080 (CCK-8); details: Homo sapiens, HT-1080, 48 h
Procedure, shortened: as §1

[7] = test system: cardiac fibroblast RAT-iCell-C002; assay: Anti-fibrosis activity test: inhibition of proliferation of cardiac fibroblast RAT-iCell-C002 (CCK-8); details: Cardiac fibroblast, 48 h
Procedure, shortened: as §1

[8] = Homo sapiens, IMR-90 cells, 48 h, CCK-8
[9] = Homo sapiens, CCC-ESF-1 cells, 48 h, CCK-8
[10] = CCK-8, 48 hours after administration
[11] = human embryonic lung fibroblast IMR-90, CCK-8, 48 hours
[12] = human lung fibroblasts HFL1, CCK-8, 48 hours
[13] = human dermal fibroblasts CCC-ESF-1, CCK-8, 48 hours
[14] = human hepatic stellate cells LX-2, CCK-8, 48 hours
[15] = human fibrosarcoma cells HT-1080, CCK-8, 48 hours
[16] = cardiac fibroblast RAT-iCell-C002, CCK-8, 48 hours

IC50 (NF-κB) [µM] | IC50 [5] [µM] | IC50 ([6]; HT-1080 cells, 48 h, CCK-8) [mM] | IC50 [6, 15] [mM] | Structure (SMILES) | IC50 (BHK-21 cells; 48 h, CCK-8) [mM] | IC50 [1, 8] [mM] | IC50 ([2]; HFL1 cells, 48 h, CCK-8) [mM] | IC50 [3, 9] [mM] | IC50 ([4]; LX-2, 48 h, LX-2 cells, CCK-8) [mM] | IC50 ([7]; RAT-iCell-C002 cells, CCK-8) [mM] | IC50 (BHK-21 cells; [10]) [mM] | IC50 [1, 11] [mM] | IC50 [2, 12] [mM] | IC50 [3, 13] [mM] | IC50 [4, 14] [mM] | IC50 [7, 16] [mM]
0.1 to 1 | 1 to 10 | 0.05 to 5 |  | CCCOCCOc1c2c(nc3ccccc13)-c1cccn1C2=O [Compound 671b, 9-(2-propoxyethoxy)-10H-pyrrolizino[1,2-b]quinolin-10-one] | 0.05 to 5 | 0.05 to 5 | 0.05 to 5 | 0.05 to 5 | 0.05 to 5 | 0.05 to 5 |  |  |  |  |  | 
1 to 10 | 1 to 10 |  | 0.05 to 5 | CC(C)(O)COc1c2c(nc3ccccc13)-c1cccn1C2=O [Compound 660b, 9-(2-hydroxy-2-methylpropoxy)-10H-pyrrolizino[1,2-b]quinolin-10-one] |  |  |  |  |  |  | 0.05 to 5 | 0.05 to 5 | 0.05 to 5 | 0.05 to 5 | 0.05 to 5 | 0.05 to 5
1 to 10 | 1 to 10 |  | 0.05 to 5 | O=C1c2c([nH]c3ccc(OC(F)(F)F)cc3c2=O)-c2cccn21 [Compound 306a, 7-(Trifluoromethoxy)-9H-pyrrolizino[1,2-b]quinoline-9,10(4H)-dione] |  |  |  |  |  |  | 0.05 to 5 | 0.05 to 5 | 0.05 to 5 | 0.05 to 5 | 0.05 to 5 | 0.05 to 5
1 to 10 | 1 to 10 |  | 0.05 to 5 | O=C1c2c(nc3c(Cl)cccc3c2O)-c2cccn21 [Compound 443b, 5-chloro-9-hydroxy-10H-pyrrolizino[1,2-b]quinolin-10-one] |  |  |  |  |  |  | 0.05 to 5 | 0.05 to 5 | 0.05 to 5 | 0.05 to 5 | 0.05 to 5 | 0.05 to 5
0.1 to 1 | 1 to 10 |  | 0.05 to 5 | O=C1c2c(n(Cc3cccc(F)c3)c3c(F)cccc3c2=O)-c2cccn21 [Compound 458a, 5-Fluoro-4-(3-fluorobenzyl)-9H-pyrrolizino[1,2-b]quinoline-9,10(4H)-dione] |  |  |  |  |  |  | < 0.05 | 0.05 to 5 | 0.05 to 5 | 0.05 to 5 | 0.05 to 5 | 0.05 to 5
1 to 10 | 1 to 10 |  | 0.05 to 5 | O=C1c2c(nc3ccccc3c2OCc2cccc(C(F)(F)F)c2)-c2cccn21 [Compound 598b, 9-((3-(trifluoromethyl)benzyl)oxy)-10H-pyrrolizino[1,2-b]quinolin-10-one] |  |  |  |  |  |  | 0.05 to 5 | 0.05 to 5 | 0.05 to 5 | 0.05 to 5 | 0.05 to 5 | 0.05 to 5
0.1 to 1 | 0.1 to 1 |  | 0.05 to 5 | O=C1c2c([nH]c3cc(O)ccc3c2=O)-c2cccn21 [Compound 524a, 6-Hydroxy-9H-pyrrolizino[1,2-b]quinoline-9,10(4H)-dione] |  |  |  |  |  |  | 0.05 to 5 | 0.05 to 5 | 0.05 to 5 | 0.05 to 5 | 0.05 to 5 | 0.05 to 5
1 to 10 | 1 to 10 | 0.05 to 5 |  | O=C1c2c(n(CCCCN3CCCCC3)c3ccccc3c2=O)-c2cccn21 [Compound 667a, 4-(4-(Piperidin-1-yl)butyl)-9H-pyrrolizino[1,2-b]quinoline-9,10(4H)-dione] | 0.05 to 5 | 0.05 to 5 | 0.05 to 5 | 0.05 to 5 | 0.05 to 5 | 0.05 to 5 |  |  |  |  |  | 
1 to 10 | 1 to 10 |  | 0.05 to 5 | O=C1c2c(nc3ccccc3c2OCc2ccc([N+](=O)[O-])cc2)-c2cccn21 [Compound 593b, 9-((4-nitrobenzyl)oxy)-10H-pyrrolizino[1,2-b]quinolin-10-one] |  |  |  |  |  |  | 0.05 to 5 | 0.05 to 5 | 0.05 to 5 | 0.05 to 5 | 0.05 to 5 | 0.05 to 5
1 to 10 | 1 to 10 |  | 0.05 to 5 | O=C1c2c(nc3ccccc3c2OCc2cc(F)c(F)c(F)c2F)-c2cccn21 [Compound 587b, 9-((2,3,4,5-tetrafluorobenzyl)oxy)-10H-pyrrolizino[1,2-b]quinolin-10-one] |  |  |  |  |  |  | 0.05 to 5 | 0.05 to 5 | 0.05 to 5 | 0.05 to 5 | 0.05 to 5 | 0.05 to 5
0.1 to 1 | 1 to 10 | 0.05 to 5 |  | Cc1ccn2c1-c1c(nc3ccccc3c1O)C2=O [Compound 797b, 11-hydroxy-1-methyl-5H-pyrrolizino[2,1-b]quinolin-5-one] | 0.05 to 5 | 0.05 to 5 | 0.05 to 5 | 0.05 to 5 | 0.05 to 5 | 0.05 to 5 |  |  |  |  |  | 
0.1 to 1 | 0.1 to 1 |  | 0.05 to 5 | O=C1c2c(n(Cc3ccccc3Cl)c3ccccc3c2=O)-c2cccn21 [Compound 600a, 4-(2-Chlorobenzyl)-9H-pyrrolizino[1,2-b]quinoline-9,10(4H)-dione] |  |  |  |  |  |  | 0.05 to 5 | 0.05 to 5 | 0.05 to 5 | 0.05 to 5 | 0.05 to 5 | 0.05 to 5
1 to 10 | 1 to 10 |  | 0.05 to 5 | O=C1c2c(nc3ccccc3c2OCc2cccc([N+](=O)[O-])c2)-c2cccn21 [Compound 583b, 9-((3-nitrobenzyl)oxy)-10H-pyrrolizino[1,2-b]quinolin-10-one] |  |  |  |  |  |  | 0.05 to 5 | 0.05 to 5 | 0.05 to 5 | 0.05 to 5 | 0.05 to 5 | 0.05 to 5
10 to 50 | 1 to 10 |  | 0.05 to 5 | O=C1c2c(nc3cc(F)ccc3c2OCc2ccc(Cl)cc2)-c2cccn21 [Compound 496b, 9-((4-chlorobenzyl)oxy)-6-fluoro-10H-pyrrolizino[1,2-b]quinolin-10-one] |  |  |  |  |  |  | 0.05 to 5 | 0.05 to 5 | 0.05 to 5 | 0.05 to 5 | 0.05 to 5 | 0.05 to 5
1 to 10 | 1 to 10 | 0.05 to 5 |  | Cc1cc(C)c2[nH]c3c(c(=O)c2c1)C(=O)n1cccc1-3 [Compound 750a, 5,7-Dimethyl-9H-pyrrolizino[1,2-b]quinoline-9,10(4H)-dione] | 0.05 to 5 | 0.05 to 5 | 0.05 to 5 | 0.05 to 5 | 0.05 to 5 | 0.05 to 5 |  |  |  |  |  | 
1 to 10 | 1 to 10 |  | < 0.05 | Cc1ccc(Cn2c3c(c(=O)c4ccccc42)C(=O)n2cccc2-3)cc1 [Compound 604a, 4-(4-Methylbenzyl)-9H-pyrrolizino[1,2-b]quinoline-9,10(4H)-dione] |  |  |  |  |  |  | 0.05 to 5 | 0.05 to 5 | 0.05 to 5 | 0.05 to 5 | 0.05 to 5 | 0.05 to 5
10 to 50 | 10 to 50 |  | 0.05 to 5 | O=C1c2c([nH]c3cccc(C(F)(F)F)c3c2=O)-c2cccn21 [Compound 479a, 8-(Trifluoromethyl)-9H-pyrrolizino[1,2-b]quinoline-9,10(4H)-dione] |  |  |  |  |  |  | < 0.05 | 0.05 to 5 | 0.05 to 5 | 0.05 to 5 | 0.05 to 5 | 0.05 to 5
0.1 to 1 | 1 to 10 | 0.05 to 5 |  | Cc1cccc2c(=O)c3c([nH]c12)-c1cccn1C3=O [Compound 732a, 5-Methyl-9H-pyrrolizino[1,2-b]quinoline-9,10(4H)-dione] | < 0.05 | 0.05 to 5 | 0.05 to 5 | < 0.05 | 0.05 to 5 | 0.05 to 5 |  |  |  |  |  | 
1 to 10 | 1 to 10 |  | 0.05 to 5 | O=C1c2c(nc3ccccc3c2OCc2ccc(F)c(Cl)c2)-c2cccn21 [Compound 603b, 9-((3-chloro-4-fluorobenzyl)oxy)-10H-pyrrolizino[1,2-b]quinolin-10-one] |  |  |  |  |  |  | 0.05 to 5 | 0.05 to 5 | 0.05 to 5 | 0.05 to 5 | 0.05 to 5 | 0.05 to 5

From patent US11040028B2, “Penicinotam derivative, preparation method and use thereof” (OCEAN UNIVERSITY OF CHINA, priority 2017, dated 2021)
